# From the CheMixHub viscosity set
# ± gives the uncertainty stated by the source.
# Assay: xn = mol fraction of the nth substance listed
compound,measurement,setting,value
COc1ccccc1N + CNC=O,viscosity,"303.15 K, 100 kPa, x2 = 0.0714",4.69 ± 0.067 mPa·s
same,viscosity,"303.15 K, 100 kPa, x2 = 0.1715",4.361 ± 0.066 mPa·s
same,viscosity,"303.15 K, 100 kPa, x2 = 0.2636",4.058 ± 0.065 mPa·s
same,viscosity,"303.15 K, 100 kPa, x2 = 0.3576",3.747 ± 0.065 mPa·s
same,viscosity,"303.15 K, 100 kPa, x2 = 0.4701",3.373 ± 0.064 mPa·s
same,viscosity,"303.15 K, 100 kPa, x2 = 0.5625",3.065 ± 0.063 mPa·s
same,viscosity,"303.15 K, 100 kPa, x2 = 0.6556",2.753 ± 0.062 mPa·s
same,viscosity,"303.15 K, 100 kPa, x2 = 0.7454",2.45 ± 0.062 mPa·s
same,viscosity,"303.15 K, 100 kPa, x2 = 0.8325",2.155 ± 0.062 mPa·s
same,viscosity,"308.15 K, 100 kPa, x2 = 0.0714",4.301 ± 0.066 mPa·s
same,viscosity,"308.15 K, 100 kPa, x2 = 0.1715",4.001 ± 0.065 mPa·s
same,viscosity,"308.15 K, 100 kPa, x2 = 0.2636",3.725 ± 0.065 mPa·s
same,viscosity,"308.15 K, 100 kPa, x2 = 0.3576",3.441 ± 0.064 mPa·s
same,viscosity,"308.15 K, 100 kPa, x2 = 0.4701",3.1 ± 0.063 mPa·s
same,viscosity,"308.15 K, 100 kPa, x2 = 0.5625",2.817 ± 0.063 mPa·s
same,viscosity,"308.15 K, 100 kPa, x2 = 0.6556",2.532 ± 0.062 mPa·s
same,viscosity,"308.15 K, 100 kPa, x2 = 0.7454",2.256 ± 0.062 mPa·s
same,viscosity,"308.15 K, 100 kPa, x2 = 0.8325",1.986 ± 0.061 mPa·s
same,viscosity,"313.15 K, 100 kPa, x2 = 0.0714",3.99 ± 0.065 mPa·s
same,viscosity,"313.15 K, 100 kPa, x2 = 0.1715",3.713 ± 0.064 mPa·s
same,viscosity,"313.15 K, 100 kPa, x2 = 0.2636",3.456 ± 0.064 mPa·s
same,viscosity,"313.15 K, 100 kPa, x2 = 0.3576",3.192 ± 0.063 mPa·s
same,viscosity,"313.15 K, 100 kPa, x2 = 0.4701",2.875 ± 0.063 mPa·s
same,viscosity,"313.15 K, 100 kPa, x2 = 0.5625",2.613 ± 0.062 mPa·s
same,viscosity,"313.15 K, 100 kPa, x2 = 0.6556",2.348 ± 0.062 mPa·s
same,viscosity,"313.15 K, 100 kPa, x2 = 0.7454",2.091 ± 0.061 mPa·s
same,viscosity,"313.15 K, 100 kPa, x2 = 0.8325",1.841 ± 0.061 mPa·s
same,viscosity,"318.15 K, 100 kPa, x2 = 0.0714",3.702 ± 0.065 mPa·s
same,viscosity,"318.15 K, 100 kPa, x2 = 0.1715",3.446 ± 0.064 mPa·s
same,viscosity,"318.15 K, 100 kPa, x2 = 0.2636",3.209 ± 0.063 mPa·s
same,viscosity,"318.15 K, 100 kPa, x2 = 0.3576",2.964 ± 0.063 mPa·s
same,viscosity,"318.15 K, 100 kPa, x2 = 0.4701",2.67 ± 0.062 mPa·s
same,viscosity,"318.15 K, 100 kPa, x2 = 0.5625",2.428 ± 0.062 mPa·s
same,viscosity,"318.15 K, 100 kPa, x2 = 0.6556",2.182 ± 0.062 mPa·s
same,viscosity,"318.15 K, 100 kPa, x2 = 0.7454",1.944 ± 0.061 mPa·s
same,viscosity,"318.15 K, 100 kPa, x2 = 0.8325",1.711 ± 0.061 mPa·s
COc1ccccc1N + OCCCl,viscosity,"303.15 K, 100 kPa, x1 = 0.1041",2.83 ± 0.08 mPa·s
same,viscosity,"303.15 K, 100 kPa, x1 = 0.2448",3.17 ± 0.09 mPa·s
same,viscosity,"303.15 K, 100 kPa, x1 = 0.3401",3.4 ± 0.09 mPa·s
same,viscosity,"303.15 K, 100 kPa, x1 = 0.4623",3.69 ± 0.1 mPa·s
same,viscosity,"303.15 K, 100 kPa, x1 = 0.5621",3.92 ± 0.11 mPa·s
same,viscosity,"303.15 K, 100 kPa, x1 = 0.6825",4.2 ± 0.11 mPa·s
same,viscosity,"303.15 K, 100 kPa, x1 = 0.7612",4.38 ± 0.12 mPa·s
same,viscosity,"303.15 K, 100 kPa, x1 = 0.8484",4.58 ± 0.12 mPa·s
same,viscosity,"303.15 K, 100 kPa, x1 = 0.9217",4.75 ± 0.13 mPa·s
same,viscosity,"308.15 K, 100 kPa, x1 = 0.1041",2.5 ± 0.07 mPa·s
same,viscosity,"308.15 K, 100 kPa, x1 = 0.2448",2.83 ± 0.08 mPa·s
same,viscosity,"308.15 K, 100 kPa, x1 = 0.3401",3.05 ± 0.08 mPa·s
same,viscosity,"308.15 K, 100 kPa, x1 = 0.4623",3.33 ± 0.09 mPa·s
same,viscosity,"308.15 K, 100 kPa, x1 = 0.5621",3.55 ± 0.1 mPa·s
same,viscosity,"308.15 K, 100 kPa, x1 = 0.6825",3.82 ± 0.1 mPa·s
same,viscosity,"308.15 K, 100 kPa, x1 = 0.7612",4 ± 0.11 mPa·s
same,viscosity,"308.15 K, 100 kPa, x1 = 0.8484",4.19 ± 0.11 mPa·s
same,viscosity,"308.15 K, 100 kPa, x1 = 0.9217",4.35 ± 0.12 mPa·s
same,viscosity,"313.15 K, 100 kPa, x1 = 0.1041",2.11 ± 0.06 mPa·s
same,viscosity,"313.15 K, 100 kPa, x1 = 0.2448",2.44 ± 0.07 mPa·s
same,viscosity,"313.15 K, 100 kPa, x1 = 0.3401",2.67 ± 0.07 mPa·s
same,viscosity,"313.15 K, 100 kPa, x1 = 0.4623",2.96 ± 0.08 mPa·s
same,viscosity,"313.15 K, 100 kPa, x1 = 0.5621",3.19 ± 0.09 mPa·s
same,viscosity,"313.15 K, 100 kPa, x1 = 0.6825",3.47 ± 0.09 mPa·s
same,viscosity,"313.15 K, 100 kPa, x1 = 0.7612",3.65 ± 0.1 mPa·s
same,viscosity,"313.15 K, 100 kPa, x1 = 0.8484",3.85 ± 0.1 mPa·s
same,viscosity,"313.15 K, 100 kPa, x1 = 0.9217",4.01 ± 0.11 mPa·s
same,viscosity,"318.15 K, 100 kPa, x1 = 0.1041",1.82 ± 0.05 mPa·s
same,viscosity,"318.15 K, 100 kPa, x1 = 0.2448",2.15 ± 0.06 mPa·s
same,viscosity,"318.15 K, 100 kPa, x1 = 0.3401",2.38 ± 0.06 mPa·s
same,viscosity,"318.15 K, 100 kPa, x1 = 0.4623",2.66 ± 0.07 mPa·s
same,viscosity,"318.15 K, 100 kPa, x1 = 0.5621",2.9 ± 0.08 mPa·s
same,viscosity,"318.15 K, 100 kPa, x1 = 0.6825",3.17 ± 0.09 mPa·s
same,viscosity,"318.15 K, 100 kPa, x1 = 0.7612",3.35 ± 0.09 mPa·s
same,viscosity,"318.15 K, 100 kPa, x1 = 0.8484",3.55 ± 0.1 mPa·s
same,viscosity,"318.15 K, 100 kPa, x1 = 0.9217",3.71 ± 0.1 mPa·s
OC[C@@H](O)[C@H](O)[C@@H](O)CO + O,viscosity,"293.15 K, 101.3 kPa, x1 = 0.00359",1.06 ± 0.06 mPa·s
same,viscosity,"293.15 K, 101.3 kPa, x1 = 0.007154",1.14 ± 0.07 mPa·s
same,viscosity,"293.15 K, 101.3 kPa, x1 = 0.01421",1.32 ± 0.08 mPa·s
same,viscosity,"293.15 K, 101.3 kPa, x1 = 0.02631",1.72 ± 0.1 mPa·s
same,viscosity,"293.15 K, 101.3 kPa, x1 = 0.03478",2.09 ± 0.13 mPa·s
same,viscosity,"293.15 K, 101.3 kPa, x1 = 0.0431",2.42 ± 0.15 mPa·s
same,viscosity,"293.15 K, 101.3 kPa, x1 = 0.05127",2.85 ± 0.17 mPa·s
same,viscosity,"303.15 K, 101.3 kPa, x1 = 0.00359",0.85 ± 0.05 mPa·s
same,viscosity,"303.15 K, 101.3 kPa, x1 = 0.007154",0.91 ± 0.06 mPa·s
same,viscosity,"303.15 K, 101.3 kPa, x1 = 0.0107",0.99 ± 0.06 mPa·s
same,viscosity,"303.15 K, 101.3 kPa, x1 = 0.01421",1.04 ± 0.06 mPa·s
same,viscosity,"303.15 K, 101.3 kPa, x1 = 0.02631",1.33 ± 0.08 mPa·s
same,viscosity,"303.15 K, 101.3 kPa, x1 = 0.03478",1.53 ± 0.09 mPa·s
same,viscosity,"303.15 K, 101.3 kPa, x1 = 0.0431",1.8 ± 0.11 mPa·s
same,viscosity,"303.15 K, 101.3 kPa, x1 = 0.05127",2.1 ± 0.13 mPa·s
same,viscosity,"313.15 K, 101.3 kPa, x1 = 0.00359",0.69 ± 0.04 mPa·s
same,viscosity,"313.15 K, 101.3 kPa, x1 = 0.007154",0.78 ± 0.05 mPa·s
same,viscosity,"313.15 K, 101.3 kPa, x1 = 0.0107",0.79 ± 0.05 mPa·s
same,viscosity,"313.15 K, 101.3 kPa, x1 = 0.01421",0.83 ± 0.05 mPa·s
same,viscosity,"313.15 K, 101.3 kPa, x1 = 0.0177",0.9 ± 0.05 mPa·s
same,viscosity,"313.15 K, 101.3 kPa, x1 = 0.02631",1.02 ± 0.06 mPa·s
same,viscosity,"313.15 K, 101.3 kPa, x1 = 0.03478",1.19 ± 0.07 mPa·s
same,viscosity,"313.15 K, 101.3 kPa, x1 = 0.0431",1.38 ± 0.08 mPa·s
same,viscosity,"313.15 K, 101.3 kPa, x1 = 0.05127",1.6 ± 0.1 mPa·s
same,viscosity,"323.15 K, 101.3 kPa, x1 = 0.00359",0.58 ± 0.04 mPa·s
same,viscosity,"323.15 K, 101.3 kPa, x1 = 0.007154",0.62 ± 0.04 mPa·s
same,viscosity,"323.15 K, 101.3 kPa, x1 = 0.01421",0.69 ± 0.04 mPa·s
same,viscosity,"323.15 K, 101.3 kPa, x1 = 0.0177",0.75 ± 0.05 mPa·s
same,viscosity,"323.15 K, 101.3 kPa, x1 = 0.02631",0.85 ± 0.05 mPa·s
same,viscosity,"323.15 K, 101.3 kPa, x1 = 0.03478",0.96 ± 0.06 mPa·s
same,viscosity,"323.15 K, 101.3 kPa, x1 = 0.0431",1.1 ± 0.07 mPa·s
same,viscosity,"323.15 K, 101.3 kPa, x1 = 0.05127",1.25 ± 0.08 mPa·s
